Molecules are shown by their SMILES. Read-outs that look alike come from different tables or passages of the source.

The values below come from publication PMC7176092, “Development of the first in vivo GPR17 ligand through an iterative drug discovery pipeline: A novel disease-modifying strategy for multiple sclerosis” (PLoS ONE, 2020).

One assay has as its target T1, ADR2A (Homo sapiens, UniProt P08913).
T1 construct: Eurofins Cerep (external service)
T1 sequence (P08913 1-465): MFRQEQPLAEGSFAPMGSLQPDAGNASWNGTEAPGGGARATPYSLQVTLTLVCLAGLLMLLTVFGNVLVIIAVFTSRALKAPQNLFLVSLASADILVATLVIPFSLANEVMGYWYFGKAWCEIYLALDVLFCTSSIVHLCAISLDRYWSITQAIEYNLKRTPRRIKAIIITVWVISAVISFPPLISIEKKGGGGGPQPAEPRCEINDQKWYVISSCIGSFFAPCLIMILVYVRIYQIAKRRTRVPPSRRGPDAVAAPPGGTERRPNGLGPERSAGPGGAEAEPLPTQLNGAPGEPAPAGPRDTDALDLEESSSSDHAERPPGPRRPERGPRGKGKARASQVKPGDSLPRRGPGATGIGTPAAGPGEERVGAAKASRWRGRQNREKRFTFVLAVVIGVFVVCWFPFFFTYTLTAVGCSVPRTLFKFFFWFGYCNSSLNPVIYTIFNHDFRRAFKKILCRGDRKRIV
As to the kind of experiment: Binding assay ADR2A. The note with it: 100 nM.

In a further assay the target is T2, ADR1 (Homo sapiens, UniProt P08588).
T2 construct: Eurofins Cerep (external service)
As to the kind of experiment: Binding assay ADR1 (reference atenolol). The note with it: 100 nM.

The next assay addresses T3, CXCR3 (Homo sapiens, UniProt P49682).
T3 sequence (P49682 1-368): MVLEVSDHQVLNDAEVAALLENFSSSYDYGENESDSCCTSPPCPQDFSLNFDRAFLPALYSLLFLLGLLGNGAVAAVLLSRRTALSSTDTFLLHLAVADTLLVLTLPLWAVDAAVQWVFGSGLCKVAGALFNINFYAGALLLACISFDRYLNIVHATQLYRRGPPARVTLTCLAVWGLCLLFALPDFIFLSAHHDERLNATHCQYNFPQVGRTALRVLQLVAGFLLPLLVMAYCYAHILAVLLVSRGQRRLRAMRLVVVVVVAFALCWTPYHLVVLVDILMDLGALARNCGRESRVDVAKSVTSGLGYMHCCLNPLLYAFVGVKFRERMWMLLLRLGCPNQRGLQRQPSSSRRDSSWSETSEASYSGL
Briefly: Cellular functional assay CXCR3.

Setting [1] is: mean of 2, read-out: % Of control specific binding, Mean.
Setting [2] is: read-out: % Inhibition of control specific binding.
The mark [3] stands for this setting: single replicates 1 and 2, 0.1 µM.
Where [4] appears, read: single replicates 1 and 2, read-out: % Of control specific binding.

T2 sequence (P08588 whole entry): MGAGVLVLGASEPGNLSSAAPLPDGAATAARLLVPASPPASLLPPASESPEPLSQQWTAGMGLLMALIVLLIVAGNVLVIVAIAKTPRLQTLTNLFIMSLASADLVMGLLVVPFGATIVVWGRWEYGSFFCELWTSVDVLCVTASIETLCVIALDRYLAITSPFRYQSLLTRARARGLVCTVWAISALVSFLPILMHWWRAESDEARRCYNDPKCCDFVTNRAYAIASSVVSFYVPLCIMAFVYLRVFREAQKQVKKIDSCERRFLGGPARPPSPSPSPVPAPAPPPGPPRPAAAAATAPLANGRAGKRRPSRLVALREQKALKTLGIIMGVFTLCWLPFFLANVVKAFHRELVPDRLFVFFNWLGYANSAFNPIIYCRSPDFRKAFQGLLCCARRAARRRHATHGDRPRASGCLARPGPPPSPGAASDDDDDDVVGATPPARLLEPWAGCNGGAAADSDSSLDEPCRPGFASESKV

Take `Cc1ccc(-c2nnc(SCC(=O)Nc3nccs3)[nH]2)cc1` [Compound 9]: the remaining activity at 0.1 µM at ADR2A (setting [1]) came to 99.9%; at ADR2A (setting [4]), 100%; on ADR1 (setting [1]), 91.5%; at ADR1 (setting [4]) it was 94%. In addition, the inhibition at 0.1 µM at ADR2A (setting [2]) was determined as 0%; at ADR1 (setting [2]), 9%; on CXCR3 (read-out: % Inhibition of control agonist response), 0.3%. Moreover, the “% Of control specific binding” value is 99.5% on ADR2A (setting [3]) and 88.9% on ADR1 (setting [3]). The “Agonist Response (% of Control)” value at CXCR3 (antagonist effect, 100 nM, single replicates 1st and 2nd, 0.1 µM) worked out at 102.1%. For the same compound, the activity at 0.1 µM at CXCR3 (read-out: Agonist Response (% of Control), Mean, antagonist effect, 100 nM, mean of 2) came to 102%; on CXCR3 (read-out: Agonist Response (% of Control), antagonist effect, 100 nM, single replicates 1st and 2nd) it was 103%.
